The values below come from patent US20250346629A1, “USE OF D-ENANTIOMERIC PEPTIDE LIGANDS OF MONOMERIC ALPHA-SYNUCLEIN FOR THE THERAPY OF VARIOUS SYNUCLEINOPATHIES” (PRIAVOID GMBH, priority 2021, published 2025).

One data set has as its target α-syn (Homo sapiens, UniProt P37840). The experiment in a line: Kinetic single-cycle SPR assay with α-syn and immobilized peptides, CMD200M (FIG. 11). To be noted: kinetic 1:1 interaction model. Format: binding. The procedure: The measurements were carried out using an 8K-Biacore device (Cytiva, USA). The interactions were measured using single-cycle kinetics experiments. In all assays, the peptide compounds were immobilized as ligands on the sensor surface and recombinant α-syn was injected into the flow as the analyte. […] Surface quenching was carried out with 1 M ethanolamine at pH 8.3. Unless stated otherwise, the kinetic experiments were carried out at a flow rate of 30 μl/min in PBS, pH 7.4. The surface was regenerated between cycles using 30 s injections of 2 M Gua-HCl at 30 μl/min. Data evaluation was performed using the evaluation software Biacore insight v3.0 (Cytiva, USA).
The experiment was carried out as an individual measurement.

The next data set addresses full-length α-syn (Homo sapiens, UniProt P37840). Kind of data set: MST measurement of fluorophore-labeled peptides with full-length α-syn (FIG. 10). To be noted: 100 nM labeled peptide, PBS pH 7.4, 25° C., individual measurement. Format: binding. The procedure:
The peptides were fluorescence labeled by means of cysteine-maleimide coupling. SVD-1_Cys and SVD 1a_Cys were fluorescence labeled at the C-terminus with a fivefold or tenfold molar excess of TCEP and CF633-PEG2-maleimide (Sigma-Aldrich, USA). The labeling reaction was carried out in 25 mM NaPi, PH 7.0, for 2 h at RT. The labeled peptides were purified at 25° C. using an Agilent 1260 Infinity II System and a C-18 RP-HPLC column (Zorbax 300 SB-C8/SB-C 18, Agilent, USA). The mobile phases consisted of A: water+0.1% TFA, and B: acetonitrile+0.1% TFA. The fluorescence-labeled peptides and proteins were eluted with a gradient of 5-40% (v/v) B in 30 min. The fluorescence-labeled products were fractionated using the absorption wavelength of the fluorophore (CF633: 633 nm) and the pooled samples were subsequently lyophilized and redissolved in the appropriate buffer. The protein concentrations were determined by means of UV-vis and the fluorescence-labeled samples were stored at −20° C.
The experiments for microscale thermophoresis (MST) were carried out using a Monolith NT.115 device (NanoTemper Technologies GmbH, GE). Fluorescence-labeled peptides were diluted in PBS, PH 7.4 to a final concentration of 100 nM. […] The data was evaluated with the thermophoresis effect, using the NT analysis software (version 1.5.41) supplied by the manufacturer. […]

For a further data set, the target named is monomeric α-syn (Homo sapiens, UniProt P37840). The experiment in a line: Size-exclusion chromatography of monomeric α-syn after incubation with SVD-1a (FIG. 13). The note with it: 10 μM α-syn monomer with 0-80 μM SVD-1a, 2 h, 37° C., 300 rpm. The data set is classed as biochemical. As for the experimental part:
10 μM α-syn monomer were incubated with 0, 5, 10, 20, 40 and 80 μM SVD-1a in PBS, pH 7.4, for 2 h at 37° C. and 300 rpm. The SEC was carried out with a Bio SEC-3 column (150 Å, Agilent, USA) at 1 ml min^−1 and PBS, pH 7.4, as mobile phase. The samples were centrifuged for 5 minutes at 20 800×g before the supernatant was injected. The protein was detected at A214. α-syn monomer eluted after 6.91 min retention time. The peak area of the α-syn monomer was integrated for the 10 μM α-syn sample and set to 100%. The concentration of monomeric α-syn was not reduced in the presence of increasing concentrations of SVD-1a. SVD-1a itself was only eluted during the purification and regeneration procedure of the SEC, which is highly probably attributable to its high net positive charge.

Data set [1] in a line: Solubility of D-peptides in buffer (UV-vis of supernatant after centrifugation). The data set is classed as physicochemical. To be noted: different buffers including PBS, aqueous buffer; different buffer conditions including PBS pH 7.4; 1 h at 37° C., 20 800×g centrifugation; read-out: starting concentration up to which the compound remained completely in the supernatant. The source says: D-enantiomeric peptides with C-terminal amidation were acquired from CASLO (CASLO, DK) as a lyophilized chloride salt powder having a purity of >95%.

Square brackets hold non-standard residues; d marks the D form. Peptide text beside a SMILES is read from it.

For `CC[C@@H](C)[C@@H](NC(=O)[C@@H](Cc1c[nH]cn1)NC(=O)[C@@H](CCC(=O)O)NC(=O)[C@@H](CCC(N)=O)NC(=O)[C@@H](Cc1c[nH]c2ccccc12)NC(=O)[C@@H](Cc1ccc(O)cc1)NC(=O)[C@H](NC(=O)[C@@H](CCC(=O)O)NC(=O)[C@@H](Cc1c[nH]cn1)NC(=O)[C@H](NC(=O)[C@H]1CCCN1C(=O)[C@@H](CC(C)C)NC(=O)[C@H](N)CCCNC(=N)N)[C@H](C)O)[C@H](C)O)C(=O)N[C@H](Cc1c[nH]c2ccccc12)C(=O)N[C@H](Cc1c[nH]cn1)C(=O)N[C@H](C)C(=O)N[C@H](CCCNC(=N)N)C(=O)N[C@H](CCCNC(=N)N)C(=O)N[C@H](CCCNC(=N)N)C(=O)N[C@H](CCCNC(=N)N)C(=O)N[C@H](CCCNC(=N)N)C(N)=O` [SVD-1a, rlpthetywqehiwharrrrr] (H-[dR][dL][dP][dT][dH][dE][dT][dY][dW][dQ][dE][dH][dI][dW][dH][dA][dR][dR][dR][dR][dR]-NH2), the Kd at α-syn (PBS 7.4, individual measurement) turned out to be 0.1 nM; at full-length α-syn, 390 nM. Besides, the koff on α-syn (PBS 7.4, as printed for SVD-1a) came to 3.13e-05 s⁻¹. The “concentration of monomeric α-syn (SEC peak area)” value on monomeric α-syn is “not reduced”. In data set [1], the solubility at 1 h is not below 1000 µM.
